Patent publication US11690824B2, “Antibacterial compounds” (THE GENERAL HOSPITAL CORPORATION, priority 2018, dated 2023)
In brackets after ≈: the same amount, converted by molar mass. Like-named read-outs stand apart in the source and are kept apart here.

What was measured:
S. aureus (MRSA) MW2 = test: Minimal inhibitory concentration (MIC) assay, micro-dilution; assay type: cell-based; settings: for MIC: Staphylococcus aureus
Summary of the method: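 Readout is the minimal inhibitory concentration by CLSI micro-dilution. Biological triplicates were performed, with S. aureus in TSB and E. faecium in BHI broth at 37° C.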

A. baumannii ATCC 17978 = test: MIC assay; assay type: cell-based, Acinetobacter baumannii; settings: Acinetobacter baumannii, ATCC17978; A. baumannii ATCC 17978; read-out: Minimum inhibitory concentration
Excerpt: (§1) Bacterial strains, growth conditions, and persister isolation. Methicillin-resistant S. aureus strains, MW2 BAA-1707, ATCC 33591, and JE2, methicillin-susceptible S. aureus strains, NCTC 8325, Newman, and ATCC 29213, vancomycin-resistant S. aureus strain, VRS1, Enterococcus faecium E007, vancomycin-resistant E. faecium strains, C68,^7 WB312, and WC196, Klebsiella pneumoniae WGLW2 (BEI Resources, Manassas, Va., USA), Acinetobacter baumannii ATCC 17978, Pseudomonas aeruginosa PA14, and Enterobacter aerogenes ATCC 13048 were used to test antimicrobial activity (Table 1). S. aureus strains were grown in tryptic soy broth (TSB) (BD, Franklin Lakes, N.J., USA), and E. faecium was grown in brain-heart infusion (BHI) broth (BD, Franklin Lakes, N.J., USA) at 37° C. K. pneumoniae, A. baumannii, P. aeruginosa, and E. aerogenes were grown in Luria Bertani (LB) broth (BD, Franklin Lakes, N.J., USA) at 37° C.
(§2) Minimal inhibitory concentration (MIC) assay. The MICS of antibiotics were determined by the standard micro-dilution method recommended by the Clinical and Laboratory Standards Institute. MIC assays were conducted in biological triplicate.

P. aeruginosa PA14 = test: MIC assay; assay type: cell-based, Pseudomonas aeruginosa; settings: Pseudomonas aeruginosa; P. aeruginosa PA14; read-out: Minimum inhibitory concentration
Excerpt: as §1, §2

[1] = system: exponential-phase MRSA MW2; test: Killing kinetics assay; assay type: cell-based, S. aureus; settings: 16 μg/ml (4× MIC), ~10^7 CFU/mL
Method: Killing kinetics assay. An MRSA MW2 overnight culture was diluted 1:10,000 in 25 mL TSB (˜10^5 CFU/mL) in a 250 mL flask and incubated at 37° C. with shaking at 200 rpm for 4.5 h until it reached exponential-phase (˜2×10^7 CFU/mL). 1 mL of the exponential phase cell culture was mixed with 1 mL of pre-warmed TSB containing twice the desired concentrations of antibiotics in a 96-well assay block (Corning Costar 3960). The assay block was incubated at 37° C. with shaking at 200 rpm. At every hour, 400 μl aliquots were taken, washed once with phosphate buffered saline (PBS), serially diluted and spot-plated onto tryptic soy agar (TSA, BD) plates. After incubation at 37° C. for overnight, colonies were counted to enumerate the number of cells. These experiments were conducted in biological triplicate.

MRSA MW2 biofilms = test: Biofilm persister killing assay; assay type: cell-based, S. aureus; settings: 16 μg/ml nTZDpa combined with 10 μg/ml gentamicin, 24 h
Method: Biofilm persister killing assay. An overnight culture of cells was diluted 1:200 with TSB supplemented with 0.2% glucose and 3% NaCl. A 13 mm-diameter Millipore mixed cellulose ester membrane (EMD Millipore GSWP01300) was placed at the bottom of each well of a 12-well plate (Falcon 353043). 1 mL of the diluted culture was added to each well and incubated statically at 37° C. for 24 h. The membranes were washed 3-times with PBS and transferred to a fresh 12-well plate. 1 mL of PBS containing the desired concentration of antibiotics was added to each well, and then the plate was incubated statically at 37° C. for 24 h. The membranes were washed 3 times with PBS, placed in 2-mL microcentrifuge tubes containing 1 mL PBS, and sonicated in an ultrasonic bath (Fisher Scientific FS 30) for 10 min. The sonicated samples were serially diluted and spot-plated on TSA to enumerate the number of live cells. The experiment was conducted in biological triplicate.

MRSA MW2 = test: Deep-seated mouse thigh infection model; assay type: in vivo; settings: 5 days
Method: Deep-seated mouse thigh infection model. In vivo efficacy of nTZDpa alone or in combination with gentamicin against MRSA persisters was evaluated by a previously described neutropenic mouse thigh infection model with modifications. Six-week-old female CD-I mice (20-25 g, Charles River Laboratories, Wilmington, Mass., USA) were obtained from Charles River Laboratories (Wilmington, Mass., USA). The CD-I mice were rendered neutropenic by administering 150 mg/kg and 100 mg/kg of cyclophosphamide intraperitoneally (i.p.) at 4 days and 1 day before infection, respectively. On the day of infection, overnight culture of MRSA MVV2 was washed 3-time with sterile saline and diluted to 10^7 CFU/ml in the saline. 50 μl of the diluted culture (5×10^5 CFU per mouse) was injected to the right thigh of each mouse. nTZDpa was dissolved in Kolliphor EL (Sigma-Aldrich, St Louis, Mo., USA)/ethanol 1:1 and then diluted 1:10 in saline to a final concentration of 50 mg/kg. At 24 h post-infection, groups of mice (n=10) were treated with 30 mg/kg gentamicin subcutaneously (s.c.) every 12 h, 25 mg/kg vancomycin i.p. every 24 h, 50 mg/kg nTZPpa i.p. every 24 h, or the combination of 50 mg/kg nTZDpa i.p. every 24 h and 30 mg/kg gentamicin s.c. every 12 h for 5 days. Control mice were injected with 250 μl of 10% Kolliphor EL/ethanol in saline i.p. every 24 h for 5 days. Mice were euthanized at 96 h post-infection. Blood was collected by cardiac puncture, and the infected thighs were aseptically excised, weighed, and stored at 4° C. until homogenization. To evaluate hepatic and renal toxicities, the levels of alanine aminotransferase and blood urea nitrogen were analyzed with commercially available kits, following the manufacturer's protocol (Pointe Scientific, Canton, Mich., USA). Thighs were homogenized in PBS, serially diluted with PBS, and spot-plated on TSA plates. […] Statistical significance among each group was analyzed by one-way ANOVA with post-hoc Tukey test using PASW Statistics 18 (SPSS Inc. Chicago, Ill., USA).

Gram-negative bacteria = test: MIC against Gram-negative bacteria; assay type: cell-based
Excerpt: as §1, §2

O=C(O)c1c(Sc2ccccc2)c2cc(Cl)ccc2n1Cc1ccc(Cl)cc1 [nTZDpa]
MIC (S. aureus (MRSA) MW2; S. aureus (MRSA) MW2, read-out: Minimum inhibitory concentration): 4 µg/mL (≈ 9.34 µM)
MIC (S. aureus (MRSA) MW2; Table 3, growing MRSA, read-out: MIC): 4 µg/mL (≈ 9.34 µM)
MIC relative to MIC of vancomycin (S. aureus (MRSA) MW2; fold higher): 4 fold
MIC (A. baumannii ATCC 17978): > 64 µg/mL
MIC (P. aeruginosa PA14): > 64 µg/mL
time to complete eradication of exponential-phase MRSA MW2 [1]: ≤ 2 h
MRSA persisters formed in biofilms (MRSA MW2 biofilms): completely eradicated MRSA persisters formed in biofilms
persister cells killed in thigh (MRSA MW2; 50 mg/kg nTZDpa i.p. with 30 mg/kg gentamicin s.c., p<0.001): ~95%
MRSA CFUs / viability of persisters in thigh, single agent (MRSA MW2; vancomycin 25 mg/kg i.p., gentamicin 30 mg/kg s.c., nTZDpa 50 mg/kg i.p.): no effect on the viability of persisters
antimicrobial activity against Gram-negative bacteria (Gram-negative bacteria): not effective against Gram-negative bacteria
